From US6649637B2, “Inhibition of intracellular replication by pyridinylimidazoles” (priority 2001, dated 2003)
Like-named read-outs stand apart in the source and are kept apart here.

How the values were obtained:
[1] = test system: T. gondii; conditions: cited from earlier work
[2] = test system: T. gondii infected dendritic cells; type: cell-based, human
[3] = test system: mutant tachyzoite SBRRH2; experiment: Replication of SB203580-resistant RH clone SBRRH2 in fibroblasts; type: cell-based, Toxoplasma gondii
[4] = test system: T. gondii strain RH; experiment: Protection of fibroblast monolayers from T. gondii-mediated destruction
Excerpt: Photomicrographs were taken 5 days after treatment was begun.

[5] = test system: T. gondii RH strain tachyzoites; experiment: [3H]methyluracil incorporation: intracellular tachyzoite replication in human fibroblasts, RH strain; type: cell-based, Toxoplasma gondii; conditions: drug added 6 hours after infection; for inhibition of intracellular RH strain tachyzoite replication: dose-dependent
[6] = test system: T. gondii Me49 strain tachyzoites; experiment: [3H]methyluracil incorporation: intracellular tachyzoite replication in human fibroblasts, Me49 strain; type: cell-based, Toxoplasma gondii; conditions: for Me49 strain more susceptible to growth inhibition than RH strain: ratio of IC50 RH / Me49
[7] = biological target: human p38 MAPK (Homo sapiens, UniProt Q16539); conditions: cited from earlier work
[8] = test system: extracellular T. gondii tachyzoites; experiment: Incubation of extracellular tachyzoites with drug, wash, then [3H]uracil incorporation in fresh fibroblasts; type: cell-based, Toxoplasma gondii; conditions: 10 μM, extracellular tachyzoites incubated 1 hour, washed; at 48 hours
[9] = test system: RH strain T. gondii; experiment: Diamidino-2-phenylindole staining / microscopy of infected fibroblasts: tachyzoite and vacuole morphology; conditions: for tachyzoite morphology (bi-/multinucleated forms): diamidino-2-phenylindole staining
Experimental: Parasitophorous vacuoles and tachyzoite morphology were assessed by diamidino-2-phenylindole staining 24 hours later using an ultraviolet light with excitation at 410-430 nM.
Tachyzoites were released from infected fibroblasts by forced passage through a 27-gauge needle, and used within 2 hours of collection to infect new host cells. Tachyzoites were enumerated with a hemacytometer using Trypan blue dye. To evaluate nuclear morphology, infected cells were stained with diamidino-2phenylindole (Sigma) and examined by light microscopy at 400× magnification. To estimate the intensity of T. gondii infection, cytospin preparations of aliquots of cells in infected cultures were stained with Giemsa stain and examined by light microscopy using a 40× objective. At least 200 cells per condition were counted.

[10] = test system: T. gondii; experiment: T. gondii replication in dendritic cells; type: cell-based, Toxoplasma gondii
[11] = test system: RH T. gondii; experiment: Combination with pyrimethamine: [3H]uracil incorporation in RH infected fibroblasts; type: cell-based, Toxoplasma gondii; conditions: SB203580 1 μM
Experimental: Fibroblasts were infected overnight and then treated with both drugs simultaneously or individually. Incorporated [^3H]methyuracil was measured 48 hours later. Data from one representative experiment is shown.
Pyrimethamine (Sigma) was dissolved in dimethylsulfoxide and added 1 hour after infection alone or in combination with other agents.

[12] = test system: RH strain T. gondii; experiment: Stage conversion (tachyzoite to bradyzoite) by flow cytometry, RH strain; type: cell-based, Toxoplasma gondii
Experimental: Bradyzoites highly express p36 (BSR4), and p21 in cell culture, and downregulate the tachyzoite-specific proteins SAG1 and SAG2 (38, 39). […] The drugs were replaced every 5 days. After 15 days, adherent, infected fibroblasts were recovered and freed intracellular organisms were analyzed by flow cytometry (FIG. 6A).
(§1) Tachyzoites were stained with murine monoclonal antibodies specific for tachyzoite protein (SAG-2, provided by Jacqueline Channon, Dartmouth) or bradyzoite-specific antibodies against p21 or p36 (32) followed by fixation with paraformaldehyde. Flow cytometric data were acquired on a FACS Calibur (Becton-Dickinson, Mountain View, Calif.) and analyzed using CellQuest software (Becton-Dickinson) with 5000 or more events evaluated for each condition. Analysis gates were set using appropriate antibody isotype controls, and dead cells were excluded based on light scatter characteristics.

[13] = test system: RH strain tachyzoites; experiment: Tachyzoite cholesterol content (densitometric units); type: cell-based, Toxoplasma gondii; conditions: 10 μM
Experimental: (§2) The mean of triplicate replications with standard error bars is shown. “Control” is no drug treatment.
(§3) Cholesterol esterification activity was assessed by pulse-labeling of cells using radiolabeled fatty acid as substrate. […] At the time of drug addition, acyl-CoA:cholesterol acyltransferase activity was stimulated with 25-hydroxycholesterol plus cholesterol and cells were pulse-labeled for 2 hours with 20 μl sodium [^14C]oleate-albumin complex. Lipids were extracted with hexane/isopropanol (3:2 ratio) and the organic solvents evaporated under a nitrogen stream. Lipids were resuspended in chloroform, spotted on TLC silica gel G plates (Fisher, Fairlawn, N.J.) and separated in hexane/ethyl ether/glacial acetic acid (80:20:1 ratio). Cholesterol ester content was determined by liquid scintillation and normalized as pmol ^14C/mg protein. For cytochemical staining of 3-hydroxysterols, fibroblasts were seeded on poly-lysine coated coverslips, infected with RH T. gondii tachyzoites and incubated with drugs as described. After 3 days, cells were fixed in paraformaldehyde, rinsed in PBS, stained with filipin (Sigma) and examined by fluorescence microscopy using an excitation filter of 350-410 nm. Cholesterol content was determined in densitometric units measured with an Alpha Imager 2000 (Alpha Innotech Corporation, San Leandro, Calif.).

[14] = test system: T. gondii acyl-CoA:cholesterol acyltransferase; experiment: Cholesterol esterification ([14C]oleate pulse labelling) in extracellular tachyzoites; type: biochemical, Toxoplasma gondii; conditions: 10 μM, extracellular RH tachyzoites, 7 hours
Experimental: as §2
One experiment representative of 4 is shown for each measure.
as §3, with “For cytochemical staining of 3-hydroxysterols, fibroblasts were seeded on poly-lysine coated coverslips, infected with RH T. gondii tachyzoites and incubated with drugs as described.” left out

[15] = test system: Me49 tachyzoites; experiment: Stage conversion (tachyzoite to bradyzoite) by flow cytometry, Me49 strain; type: cell-based, Toxoplasma gondii; conditions: Me49, after 5 days of treatment
Excerpt: as §1

[16] = infected MOI 3 for 2 days, then 10 μM, 5 days after treatment was begun
[17] = single dose 10 μM 1 hour after infection, MOI 3, three days after infection
[18] = fibroblasts, [3H]methyluracil incorporation

Sequence of human p38 MAPK (Q16539 whole entry): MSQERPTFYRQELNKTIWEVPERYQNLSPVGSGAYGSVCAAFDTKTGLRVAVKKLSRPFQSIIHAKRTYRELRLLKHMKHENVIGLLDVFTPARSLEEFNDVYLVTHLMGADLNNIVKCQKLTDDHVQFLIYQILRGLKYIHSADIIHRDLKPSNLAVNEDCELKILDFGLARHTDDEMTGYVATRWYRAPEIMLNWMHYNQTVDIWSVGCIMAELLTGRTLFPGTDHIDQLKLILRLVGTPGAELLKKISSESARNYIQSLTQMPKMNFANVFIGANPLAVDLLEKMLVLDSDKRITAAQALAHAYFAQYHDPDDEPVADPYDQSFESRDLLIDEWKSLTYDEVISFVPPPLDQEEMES

Compound: COc1cccc(-c2cc(=O)c3ccccc3o2)c1N [PD098059]
- effect on intracellular T. gondii replication (Roisin et al.) [1]: slightly reduced

Compound: Oc1ccc(-c2nc(-c3ccc(F)cc3)c(-c3ccncc3)[nH]2)cc1 [SB202190, 4-(4-fluorophenyl)-2(4-hydroxphenyl)-5-(4 pyridyl)1H-imidazole]
- reversal of T. gondii mediated immunosuppression [2]: significantly reversed immunosuppression
- cross-resistance of SB203580-resistant tachyzoites [3]: Cross-resistance to SB202190 was observed
- state of monolayer (FIG. 6 legend) [4, 16]: virtually intact
- state of infected fibroblast culture [4, 17]: healthy and confluent
- IC50 ([5]; [3H]methyluracil incorporation, fibroblasts, estimated by linear interpolation, read-out: IC50 for inhibition of RH strain replication): ~5000 nM
- inhibition of intracellular RH strain tachyzoite replication [5]: significant inhibition
- IC50 ([6]; [3H]methyluracil incorporation, fibroblasts, drug added 6 hours after infection, estimated by linear interpolation, read-out: IC50 for inhibition of Me49 strain replication): ~200 nM
- Me49 strain more susceptible to growth inhibition than RH strain [6]: ~25 fold

Compound: CCc1nc(-c2ccc(OC)cc2)[nH]c1-c1ccncc1 [SB202474]
- p38 MAPK inhibitory activity [7]: without significant p38 MAPK inhibitory effects
- p38 MAPK inhibitory activity ([7]; listed as SB202494): no anti-p38 MAPK activity
- reversal of T. gondii mediated immunosuppression [2]: did not reverse immunosuppression
- reduction of [3H]uracil incorporation [8]: < 15%
- state of monolayer (FIG. 6 legend) [4, 16]: completely destroyed
- state of infected fibroblast culture [4, 17]: essentially destroyed
- effect on Me49 tachyzoite replication [6, 18]: no significant effect
- tachyzoite morphology (bi-/multinucleated forms) [9]: did not induce binucleated forms

Compound: C[S+]([O-])c1ccc(-c2nc(-c3ccc(F)cc3)c(-c3ccncc3)[nH]2)cc1 (centres unmarked) [SB203580, 4(4-fluorophenyl)-2-(4-methylsulfinylphenyl)-5(4-pyridyl)1H-imidazole]
- reversal of T. gondii mediated immunosuppression [2]: significantly reversed immunosuppression
- T. gondii replication in dendritic cells [10]: does reduce
- inhibition of RH T. gondii replication, single agent [11]: effective dose
- p36+ organisms (bradyzoite marker) ([12]; 10 μM SB203580 or 1 μg pyrimethamine, 15 days): significantly higher number
- p21+ cells (bradyzoite marker) ([12]; SB203580): not evident
- SAG2+ organisms (tachyzoite marker) ([12]; after 15 days of culture with SB203580, 100% at culture outset): < 15%
- inhibition of replication of SBRRH2 in fibroblasts ([3]; 10 μM): no detectable capacity to inhibit
- tachyzoite cholesterol content [13]: only minimally reduced
- infected fibroblast monolayers under constant drug ([4]; constant 10 μM, four weeks): not destroyed
- monolayer destroyed (FIG. 6 legend) [4, 16]: approximately 50%
- infected fibroblast culture destroyed [4, 17]: approximately 50%
- acyl-CoA:cholesterol acyltransferase activity [14]: did not interfere
- inhibition of intracellular RH strain tachyzoite replication [5]: significantly inhibited
- Me49 strain more susceptible to growth inhibition than RH strain [6]: approximately 12 fold
- SAG2 expression [15]: decreased
- p21 expression [15]: significantly increased
- cyst-like structures in infected fibroblasts ([9]; after 3 to 5 days): developed cyst-like structures
- tachyzoite morphology (bi-/multinucleated forms) [9]: induced formation of tachyzoites with two or more nuclei

Compound: N#CC(=C(/N)Sc1ccccc1N)/C(C#N)=C(\N)Sc1ccccc1N [U0126]
- reversal of T. gondii mediated immunosuppression [2]: did not reverse immunosuppression
- inhibition of intracellular RH strain tachyzoite replication [5]: no significant effect
- effect on Me49 tachyzoite replication [6, 18]: no significant effect
- tachyzoite morphology (bi-/multinucleated forms) [9]: did not induce binucleated forms

Compound: O=c1c(-c2ccc(O)cc2)coc2cc(O)cc(O)c12 [genistein]
- effect on intracellular T. gondii replication (Roisin et al.) [1]: no significant effect

Compound: [O]=[V]([O-])([O-])[O-] [vanadate]
- state of infected fibroblast culture [4, 17]: essentially destroyed
